{"source": "patent US20220000804A1", "about": "“INTRANASAL NANO INDUCER FOR PREVENTING AND TREATING NEURODEGENERATIVE DISEASES AND METHOD THEREOF” (Nasal-Phyto (SZ) Pharmaceutical Technology Co., Ltd., priority 2019, published 2022)", "key": {"[1]": {"test_system": "Neuroma blast cells N2a", "experiment": "Cytotoxicity test (MTT method)", "type": "cell-based", "conditions": "24 hours after drug addition", "description": "A group of Neuroma blast cells N2a that are cultured in a blank medium without hydrophobic drugs (i.e., the curcumin analog M1) defines a negative control group, and a rate of cell viability of the Neuroma blast cells N2a in the negative control group is calculated as 100%. FIG. 8 illustrates the results."}, "[2]": {"experiment": "Dissolution/dispersion in water and organic solvents, Tyndall effect", "type": "physicochemical"}}, "data": [{"smiles": "COc1ccccc1/C=C/C(=O)/C=C/c1ccccc1OC", "note": "[curcumin analog M1]", "values": [{"measurement": "cytotoxicity (cell survival rate)", "setting": "[1]", "result": "dose-dependent cytotoxicity"}, {"measurement": "solubility in tetrahydrofuran", "setting": "[2]; tetrahydrofuran", "result": "soluble in tetrahydrofuran"}, {"measurement": "dissolution / dispersion in water", "setting": "[2]; water", "result": "difficultly dissolved in water"}]}]}
